The term IC50 denotes the concentration that inhibits the measured activity by half. Lower therefore signals inhibition by little substance.
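Also: primary rat embryonic cortical neurons grown on an astrocyte layer in 96-well plates, used after at least 8 to 10 days in culture, Fura2-AM fluorescence ratio at 340/380 nm excitation.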

This test concerns AMPA receptor. Particulars: Table 1; primary culture of rat embryo cerebral cortex nerve cells, 2 μM AMPA, 1 μM MK-801.
`COc1ccccc1-c1cc(-c2ccccn2)cn(-c2ccc(F)cc2)c1=O` [Example 56, 3-(2-Methoxyphenyl)-5-(2-pyridyl)-1-(4-fluorophenyl)-1,2-dihydropyridin-2-one] yielded an IC50 of 3200 nM. `COC(=O)c1ccccc1-c1cc(-c2ccccn2)cn(-c2ccccc2)c1=O` [Example 58, 3-(2-Methoxycarbonylphenyl)-5-(2-pyridyl)-1-phenyl-1,2-dihydropyridin-2-one] yielded an IC50 of 100 nM. `Cc1ccccc1-c1cc(-c2ccccn2)cn(-c2ccccc2)c1=O` [Example 60, 3-(2-Tolyl)-5-(2-pyridyl)-1-phenyl-1,2-dihydropyridin-2-one] registered an IC50 of 1700 nM. The figure for `O=c1c(-c2ccccn2)cc(-c2ccccn2)cn1-c1ccccc1` [Example 62, 3-(2-Pyridyl)-5-(2-pyridyl)-1-phenyl-1,2-dihydropyridin-2-one] is 3100 nM; for `N#Cc1cccc(-c2cc(-c3ccccn3)cn(-c3ccccc3)c2=O)c1` [Example 63, 3-(3-Cyanophenyl)-5-(2-pyridyl)-1-phenyl-1,2-dihydropyridin-2-one] it is 1100 nM; for `N#Cc1ccc(-c2cc(-c3ccccn3)cn(-c3ccccc3)c2=O)cc1` [Example 64, 3-(4-Cyanophenyl)-5-(2-pyridyl)-1-phenyl-1,2-dihydropyridin-2-one] it is 2800 nM.

The molecule `O=c1c(-c2cccc(Cl)c2)cc(-c2ccccn2)cn1-c1ccccc1` [Example 65, 3-(3-Chlorophenyl)-5-(2-pyridyl)-1-phenyl-1,2-dihydropyridin-2-one] had an IC50 of 600 nM. The molecule `O=c1c(-c2ccc(Cl)cc2)cc(-c2ccccn2)cn1-c1ccccc1` [Example 66, 3-(4-Chlorophenyl)-5-(2-pyridyl)-1-phenyl-1,2-dihydropyridin-2-one] yielded an IC50 of 2400 nM. The molecule `O=c1c(-c2cccnc2)cc(-c2ccccn2)cn1-c1ccccc1` [Example 67, 3-(3-Pyridyl)-5-(2-pyridyl)-1-phenyl-1,2-dihydropyridin-2-one] registered an IC50 of 6500 nM. The figure for `COc1cccc(-c2cc(-c3ccccn3)cn(-c3ccccc3)c2=O)c1` [Example 69, 3-(3-Methoxyphenyl)-5-(2-pyridyl)-1-phenyl-1,2-dihydropyridin-2-one] is 900 nM; for `COc1ccc(-c2cc(-c3ccccn3)cn(-c3ccccc3)c2=O)cc1` [Example 70, 3-(4-Methoxyphenyl)-5-(2-pyridyl)-1-phenyl-1,2-dihydropyridin-2-one] it is 3100 nM. With `O=c1c(-c2ccccc2F)cc(-c2ccccn2)cn1-c1ccccc1` [Example 71, 3-(2-Fluorophenyl)-5-(2-pyridyl)-1-phenyl-1,2-dihydropyridin-2-one] the figure was 50 nM. With `O=c1c(-c2cccc(F)c2)cc(-c2ccccn2)cn1-c1ccccc1` [Example 72, 3-(3-Fluorophenyl)-5-(2-pyridyl)-1-phenyl-1,2-dihydropyridin-2-one] the figure was 700 nM; with `O=c1c(-c2ccc(F)cc2)cc(-c2ccccn2)cn1-c1ccccc1` [Example 73, 3-(4-Fluorophenyl)-5-(2-pyridyl)-1-phenyl-1,2-dihydropyridin-2-one], 1200 nM.

Turning to `COc1cccc(-n2cc(-c3ccccn3)cc(-c3ccccc3Cl)c2=O)c1` [Example 74, 3-(2-Chlorophenyl)-5-(2-pyridyl)-1-(3-methoxyphenyl)-1,2-dihydropyridin-2-one], the IC50 turned out to be 200 nM. The molecule `COc1ccncc1-c1cc(-c2ccccn2)cn(-c2ccccc2)c1=O` [Example 77, 3-(4-Methoxy-3-pyridyl)-5-(2-pyridyl)-1-phenyl-1,2-dihydropyridin-2-one] gave an IC50 of 20 nM. With `N#Cc1cccc(-c2cc(-c3ccccc3)cn(-c3cccnc3)c2=O)n1` [Example 79, 3-(6-Cyano-2-pyridyl)-5-phenyl-1-(3-pyridyl)-1,2-dihydropyridin-2-one], half-maximal inhibition (IC50) required 2600 nM. In turn, `COc1cccc(-n2cc(-c3ccccn3)cc(-c3cccnc3F)c2=O)c1` [Example 80, 3-(2-Fluoro-3-pyridyl)-5-(2-pyridyl)-1-(3-methoxyphenyl)-1,2-dihydropyridin-2-one] came in with an IC50 of 300 nM. The figure for `COc1ncccc1-c1cc(-c2ccccn2)cn(-c2ccccc2)c1=O` [Example 81, 3-(2-Methoxy-3-pyridyl)-5-(2-pyridyl)-1-phenyl-1,2-dihydropyridin-2-one] is 2700 nM; for `O=c1c(-c2cccnc2F)cc(-c2ccccn2)cn1-c1ccc(F)cc1` [Example 82, 3-(2-Fluoro-3-pyridyl)-5-(2-pyridyl)-1-(4-fluorophenyl)-1,2-dihydropyridin-2-one] it is 800 nM. Molecule `CSc1ccc(-n2cc(-c3ccccn3)cc(-c3cccnc3F)c2=O)cc1` [Example 84, 3-(2-Fluoro-3-pyridyl)-5-(2-pyridyl)-1-(4-methylthiophenyl)-1,2-dihydropyridin-2-one] gave an IC50 of 900 nM.

The molecule `COc1ccncc1-n1cc(-c2ccccn2)cc(-c2cccnc2F)c1=O` [Example 86, 3-(2-Fluoro-3-pyridyl)-5-(2-pyridyl)-1-(4-methoxy-3-pyridyl)-1,2-dihydropyridin-2-one] showed an IC50 of 1900 nM. Regarding `O=c1c(-c2cccnc2F)cc(-c2ccccc2)cn1-c1cccnc1` [Example 87, 3-(2-Fluoro-3-pyridyl)-5-phenyl-1-(3-pyridyl)-1,2-dihydropyridin-2-one], the IC50 turned out to be 1200 nM. The figure for `O=c1c(-c2cccnc2F)cc(-c2ccccn2)cn1-c1cccc(F)c1` [Example 88, 3-(2-Fluoro-3-pyridyl)-5-(2-pyridyl)-1-(3-fluorophenyl)-1,2-dihydropyridin-2-one] is 300 nM; for `N#Cc1ccccc1-c1cc(-c2ccccn2)cn(-c2cccc(F)c2)c1=O` [Example 92, 3-(2-Cyanophenyl)-5-(2-pyridyl)-1-(3-fluorophenyl)-1,2-dihydropyridin-2-one] it is 50 nM; for `N#Cc1ccc(-n2cc(-c3ccccn3)cc(-c3ccccc3C#N)c2=O)cc1` [Example 93, 3-(2-Cyanophenyl)-5-(2-pyridyl)-1-(4-cyanophenyl)-1,2-dihydropyridin-2-one] it is 1900 nM. With `N#Cc1cccc(-n2cc(-c3ccccn3)cc(-c3ccccc3C#N)c2=O)c1` [Example 94, 3-(2-Cyanophenyl)-5-(2-pyridyl)-1-(3-cyanophenyl)-1,2-dihydropyridin-2-one] the figure was 1500 nM; with `COc1ccc(-n2cc(-c3ccccn3)cc(-c3ccccc3C#N)c2=O)cc1` [Example 95, 3-(2-Cyanophenyl)-5-(2-pyridyl)-1-(4-methoxyphenyl)-1,2-dihydropyridin-2-one], 300 nM; with `COc1cccc(-n2cc(-c3ccccn3)cc(-c3ccccc3C#N)c2=O)c1` [Example 96, 3-(2-Cyanophenyl)-5-(2-pyridyl)-1-(3-methoxyphenyl)-1,2-dihydropyridin-2-one], 60 nM. As to `O=c1c(-c2ccccc2)cc(-c2ccccn2)cn1-c1cccc(F)c1` [Example 97, 3-Phenyl-5-(2-pyridyl)-1-(3-fluorophenyl)-1,2-dihydropyridin-2-one], 400 nM corresponded to half-maximal inhibition (IC50). Molecule `O=c1c(-c2ccccc2)cc(-c2ccccn2)cn1-c1ccc(F)cc1` [Example 98, 3-Phenyl-5-(2-pyridyl)-1-(4-fluorophenyl)-1,2-dihydropyridin-2-one] had an IC50 of 600 nM.

The record behind these values is US6949571B2, “1,2-dihydropyridine compounds, process for preparation of the same and use thereof” (Eisai Co., Ltd., priority 2000, dated 2005).
